In publication PMC9060980 (Evidence-based Complementary and Alternative Medicine : eCAM, 2022):
“And” between values parts separate entries of the source, which are not always exact repeats. Identical values can stand only once. Like-named read-outs stand apart in the source and are kept apart here.

Tests used:
[1] = system: A549 cells; assay: Flow cytometry with Annexin V/PI staining; type: cell-based, human; details: PTX 50 nM, 24 h
Protocol: Afterward, they were washed with PBS, counted, and adjusted to 1 × 10^6 cells/ml. Apoptosis of A549 cells was determined by flow cytometry (FC500; Beckman Coulter, Brea, CA, USA) using the Annexin V-fluorescein isothiocyanate (FITC)/propidium iodide (PI) kit (MULTISCIENCES (LIANKE) BIOTECH, CO., LTD, Hangzhou, China). Staining was performed in accordance with the method described in the manufacturer's instructions. The rate of apoptosis was analyzed using MCF software (Beckman Coulter, Brea, CA, USA).

[2] = system: A549 tumor; type: in vivo, BALB/c mice; design: tumor weight: unit not given beside the values
Protocol: (§1) Tumor-bearing mice were weighed using an electronic scale and tumor sizes were surveyed with vernier calipers, and these procedures were conducted twice a week. Tumor weight was calculated from the tumor sizes according to the reported formula [30]: tumor volume (mm^3) = (tumor length in mm) × (tumor width in mm)^2/2. One and a half hours after the last administration on Day 34, all mice were sacrificed after blood was collected from the orbital sockets using fine capillaries. […] The serum was separated and analyzed by method described previously.

[3] = Mortality, survival, side effect and body weight of A549 xenograft-bearing mice
Protocol: as §1

[4] = system: A549 cells; assay: MTT assay in A549; type: cell-based; details: Homo sapiens, 50 nM, 24 h, read-out: inhibition of the proliferation of A549 cells
Protocol: 100 μL A549 cells (2 × 10^5 cells/mL) were seeded onto a 96-well plate. […] The same volume of complete culture medium served as the negative control. Then, 20 μl MTT solution (5 mg/mL) was added to each well, and the plates were incubated for 4 h. The medium was replaced by 150 μl DMSO, which solubilized the MTT formazan salt. The absorbance of the solution was measured on a microplate reader (Vrioskan Flash, Thermo Scientific, USA) at 490 nm and the results were expressed as a percentage of the control cells.

[5] = system: Caco-2 cells; assay: Caco-2 bidirectional transport of paclitaxel; details: paclitaxel 1 μg/mL alone or with verapamil 100 μM
Protocol: (§2) The apical (AP) media volume was 500 μL and the basolateral (BL) volume was 1500 μL. […] Verapamil serves as a positive control for this experiment and was added to both compartments prior to initiation. At 30, 60, 90, and 120 min, 100 μL of media was removed from the receiver compartment followed by the addition of 100 μL of preheated buffer as replenishment.

[6] = target: T1, P-gp (Homo sapiens, UniProt P08183); assay: Permeation of PTX through MDCK–MDR1 cell monolayers; type: in vitro ADME; details: dog, PTX alone or with VRP 100 μM
T1 construct: expressed in transfected cells; host or cells: MDCK-MDR1 (Madin-Darby canine kidney cells transfected with human MDR1)
T1 sequence (P08183 whole entry): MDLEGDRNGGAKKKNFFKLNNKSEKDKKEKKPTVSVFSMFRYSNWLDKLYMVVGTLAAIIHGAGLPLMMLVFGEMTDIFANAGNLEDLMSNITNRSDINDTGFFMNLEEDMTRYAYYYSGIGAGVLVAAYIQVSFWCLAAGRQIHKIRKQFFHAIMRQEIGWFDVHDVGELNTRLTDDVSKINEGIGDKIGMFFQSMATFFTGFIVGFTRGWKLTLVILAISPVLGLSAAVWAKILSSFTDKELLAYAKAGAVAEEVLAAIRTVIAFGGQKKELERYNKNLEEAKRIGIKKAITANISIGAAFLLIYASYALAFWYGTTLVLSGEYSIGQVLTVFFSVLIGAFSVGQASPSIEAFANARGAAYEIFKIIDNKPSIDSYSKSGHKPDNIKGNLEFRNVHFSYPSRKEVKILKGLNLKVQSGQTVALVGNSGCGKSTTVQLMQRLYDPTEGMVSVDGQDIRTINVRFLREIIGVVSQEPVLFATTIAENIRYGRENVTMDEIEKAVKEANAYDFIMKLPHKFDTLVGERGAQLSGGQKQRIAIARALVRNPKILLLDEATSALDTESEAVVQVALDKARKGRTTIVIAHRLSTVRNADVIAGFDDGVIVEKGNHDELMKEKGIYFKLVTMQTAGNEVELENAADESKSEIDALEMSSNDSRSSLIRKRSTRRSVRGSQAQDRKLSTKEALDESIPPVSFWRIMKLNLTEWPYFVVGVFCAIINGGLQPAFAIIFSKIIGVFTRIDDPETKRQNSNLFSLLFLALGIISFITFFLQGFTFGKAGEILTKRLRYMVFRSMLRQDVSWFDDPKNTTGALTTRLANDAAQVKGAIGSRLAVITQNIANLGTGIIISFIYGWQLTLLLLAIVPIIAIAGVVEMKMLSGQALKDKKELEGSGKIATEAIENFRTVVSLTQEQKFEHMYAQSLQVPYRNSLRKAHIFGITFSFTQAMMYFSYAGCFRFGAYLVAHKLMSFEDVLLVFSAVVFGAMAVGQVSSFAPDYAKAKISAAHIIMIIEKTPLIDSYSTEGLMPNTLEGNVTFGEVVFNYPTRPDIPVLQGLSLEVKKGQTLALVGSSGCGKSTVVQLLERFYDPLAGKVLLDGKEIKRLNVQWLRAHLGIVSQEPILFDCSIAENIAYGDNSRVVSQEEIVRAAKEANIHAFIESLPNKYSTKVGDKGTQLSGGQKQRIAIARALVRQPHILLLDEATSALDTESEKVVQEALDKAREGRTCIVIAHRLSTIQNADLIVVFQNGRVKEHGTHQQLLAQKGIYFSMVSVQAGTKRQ
Protocol: To evaluate the inhibitory effect of flavonoids or lignoids on P-gp-induced reflux of PTX across the cultured cell monolayer, MDCK–MDR1cells were seeded on to Falcon 24-multiwell insert system at a density of 6 × 10^5 cells/mL. The detailed method is applied as previous research with some modification (such as time points of sampling including 0, 30, 60, 90, 120 min are selected, and C0 of PTX in the apical compartment is 1 μg/mL).
The apical (AP) media volume was 500 μL and the basolateral (BL) volume was 1500 μL.

[7] = system: BCL-2 family proteins' expressions in A549; assay: Western blotting of BCL-2 family proteins; type: cell-based, human; details: PTX 50 nM, 24 h
Protocol: Total cell extracts were lysed in lysis buffer (Ripa, Solarbio, China), and protein extract (60 μg) was added into each well of 10% gel and separated through gel electrophoresis. Gels were soaked in transfer buffer (30 mM glycine, 16 mM Tris-HCl, and 20% methanol) and proteins in the gels were then blotted to polyvinylidene difluoride (PVDF) membranes. Nonfat dry milk in PBST (137 mM NaCl, […], 100 mM Na2HPO4, 20 mM KH2PO4 0.05% tween 20, pH 7.4) was used for blocking nonspecific binding sites. The polyvinylidene difluoride membranes were then incubated with primary antibodies: anti-BCL-2 mAb (1 : 1000), anti-BAK mAB (1 : 2000), anti-MCL-1 pAb (1 : 3000), anti-pMCL-1 mAb (1 : 2000), anti-cyclinB1 mAb (1 : 1000), or anti-b-actin mAb (1 : 5000). Then, secondary antibodies (anti-mouse 1 : 5000, anti-rabbit–1:5000) were applied to the membranes. The ECL western blotting detection kit was used for detecting protein bands in the membranes. Protein bands were detected using the ECL Plus Kit (Huaan biotech, Hangzhou, China), imaged on Tanon 2000. Densitometry analysis was performed using ImageJ software to calculate the relative expression change after normalizing with β-actin.

[8] = in vitro; details: human, Caco-2
Protocol: as §2

[9] = Plasma concentration of paclitaxel in A549 xenograft mice; type: in vivo; details: BALB/c, mouse, intraperitoneal, 10 mg/kg, plasma concentration of paclitaxel […] after administration, PTX 10 mg/kg I.P., PTX + WAB 10 + 50 mg/kg I.G., Day 34, mean
Protocol: Tumor-bearing mice were weighed using an electronic scale and tumor sizes were surveyed with vernier calipers, and these procedures were conducted twice a week. Tumor weight was calculated from the tumor sizes according to the reported formula [30]: tumor volume (mm^3) = (tumor length in mm) × (tumor width in mm)^2/2. One and a half hours after the last administration on Day 34, all mice were sacrificed after blood was collected from the orbital sockets using fine capillaries. […] The serum was separated and analyzed by method described previously [7].

[10] = PTX 10 mg/kg I.P., PTX + WAB 10 + 50 mg/kg I.G.
[11] = PTX 10 mg/kg I.P., PTX + WAB 10 + 50 mg/kg I.G., Day 34

CC(=O)O[C@H]1C(=O)[C@@]2(C)[C@H]([C@H](OC(=O)c3ccccc3)[C@]3(O)C[C@H](OC(=O)[C@H](O)[C@@H](NC(=O)c4ccccc4)c4ccccc4)C(C)=C1C3(C)C)[C@]1(OC(C)=O)CO[C@@H]1C[C@@H]2O [Paclitaxel]
percentage of cells Annexin V positive [1]: approx. 16.3% | apoptosis ([1]; with or without HDS-2 80 μg/mL): 17.5% | percentage of cells PI positive (necrosis) ([1]; with or without HDS-2 80 μg/mL): approx. 22.8% | tumor volume, group mean ([2]; Day 1, PTX 10 mg/kg I.P., PTX+WAB 10+50 mg/kg I.G.): 80.63 mm^3 | tumor volume, group mean ([2]; Day 4, PTX 10 mg/kg I.P., PTX+WAB 10+50 mg/kg I.G.): 88.36 mm^3 | tumor volume, group mean ([2]; Day 7, PTX 10 mg/kg I.P., PTX+WAB 10+50 mg/kg I.G.): 123.87 mm^3 | tumor volume, group mean ([2]; Day 10, PTX 10 mg/kg I.P., PTX+WAB 10+50 mg/kg I.G.): 140.25 mm^3 | tumor volume, group mean ([2]; Day 13, PTX 10 mg/kg I.P., PTX+WAB 10+50 mg/kg I.G.): 170.16 mm^3 | tumor volume, group mean ([2]; Day 16, PTX 10 mg/kg I.P., PTX+WAB 10+50 mg/kg I.G.): 131.58 mm^3 | tumor volume, group mean ([2]; Day 19, PTX 10 mg/kg I.P., PTX+WAB 10+50 mg/kg I.G.): 181.34 mm^3 | tumor volume, group mean ([2]; Day 22, PTX 10 mg/kg I.P., PTX+WAB 10+50 mg/kg I.G.): 174.31 mm^3 | tumor volume, group mean ([2]; Day 25, PTX 10 mg/kg I.P., PTX+WAB 10+50 mg/kg I.G.): 203.28 mm^3 | tumor volume, group mean ([2]; Day 28, PTX 10 mg/kg I.P., PTX+WAB 10+50 mg/kg I.G.): 256.78 mm^3 | tumor volume, group mean ([2]; Day 31, PTX 10 mg/kg I.P., PTX+WAB 10+50 mg/kg I.G.): 273.56 mm^3 | tumor volume, group mean ([2]; Day 34, PTX 10 mg/kg I.P., PTX+WAB 10+50 mg/kg I.G.): 263.74 mm^3 | activity against A549 tumor growth [2, 10]: weak inhibitory activity against A549 | Inhibition rate [2, 11]: 38.60 ± 64.87% | tumor weight ([2]; PTX 10 mg/kg I.P., PTX+WAB 10+50 mg/kg I.G., Day 34, individual animals, listed as PTX): 0.2469 and 0.1592 and 0.156 and 0.1923 and 0.1802 and 0.1183 and 0.1699 | Mean (growth factor) ([2]; PTX 10 mg/kg, PTX+WAB 10+50 mg/kg, from tumor size Day 34/Day 1): 13.43 | Survival rate [3, 10]: 66.7% | Mortality (dead mice) [3, 11]: 4 | mortality % ([3]; PTX group, PTX+WAB 10+50 mg/kg, Day 34): 33.33% | inhibition at 0.05 µM [4]: ~28% | Papp AP–BL of paclitaxel [5]: 0.25 ± 0.43 ×10^−6 cm/s | Papp BL–AP of paclitaxel [5]: 75.26 ± 7.43 ×10^−6 cm/s | Papp B→A at 120 min, 1 μg/mL [6]: 86.4 ± 14.1 ×10⁻⁶ cm/s | expressions of cyclinB1, BAK, BCL-2, MCL-1, and pMCL-1 [7]: significantly upregulated | Papp A→B at 120 min, 1 μg/mL [8]: 0.252 ×10⁻⁶ cm/s | Papp B→A at 120 min, 1 μg/mL [8]: 75.3 ×10⁻⁶ cm/s | concentration at […] [9]: 201 ng/mL
